The record followed here is patent US5968910A, “Compositions containing two or three inhibitors of different HIV reverse transcriptases” (priority 1994, dated 1999).

Values after ≈ are worked out from the molar mass of the structure shown. Where two headings read alike, the source gives them in different places.

Common to all, as to type: cell-based
Assay [1] has as its system HIV-1/V(0.1) 101-Ile + 141-Glu. The experiment in a line: Sensitivity of mutant HIV-1 strain in CEM cell cultures. The following applies: Table 5. How it is done:
(§1) CEM cells were suspended at 250,000 cells per ml of culture medium and infected with wild-type HIV-I(IIIB) or mutant HIV-1 strains at 100 50% cell culture infective doses per ml. Then 100 μl of the infected cell suspensions was added to 200-μl microtiter plate wells containing 100 μl of an appropriate dilution of the test compounds. After 4 days incubation at 37° C., the cell cultures were examined for syncytium formation.

The test system of the next assay is HIV-1/II(0.1) 100-Ile. Described as above. To be noted: Table 5. How it is done:
as §1

The next assay relates to HIV-1/III(0.1) 103-Asn. The description is as above. To be noted: Table 5. As to the method:
as §1

The subject of the next assay is HIV-1/I(0.1) 103-Asn. The assay is described as above. To be noted: Table 5. As to the method: as §1
Another assay concerns HIV-1/V(0.5) 103-Asn. Described as above. The following applies: Table 5. How it is done:
as §1

The subject of another assay is HIV-1/IV(0.1) 103-Thr. The assay is described as above. The following applies: Table 5. How it is done:
as §1

The test system of the next assay is HIV-1(IIIB) (WT). The experiment in a line: microbe, parasite or virus in culture. To be noted: HIV-1 (III8), Table 5. How it is done:
as §1

Where [2] appears, read: Human immunodeficiency virus 1, CCRF-CEM, read-out: EC50.

In the case of `Nc1ccn([C@@H]2CS[C@H](CO)O2)c(=O)n1` [Compound 3TC, (-)-2'-deoxy-3'-thiacytidine], the EC50 is 0.04 µg/mL (≈ 0.174 µM) in assay [1] (setting [2]); 0.05 µg/mL (≈ 0.218 µM) with HIV-1/II(0.1) 100-Ile (setting [2]); 0.03 µg/mL (≈ 0.131 µM) with HIV-1/III(0.1) 103-Asn (setting [2]); 0.03 µg/mL (≈ 0.131 µM) with HIV-1/I(0.1) 103-Asn (setting [2]); 0.04 µg/mL (≈ 0.174 µM) with HIV-1/V(0.5) 103-Asn (setting [2]); 0.03 µg/mL (≈ 0.131 µM) in the assay with HIV-1/IV(0.1) 103-Thr (setting [2]). Also, the EC50 in the assay with HIV-1(IIIB) (WT) (Human immunodeficiency virus 1, IIIB, CCRF-CEM, read-out: EC50) amounted to 8 ng/mL (≈ 0.0349 µM).
On to `CCOCn1c(Cc2ccccc2)c(C(C)C)c(=O)[nH]c1=O` [MKC-442], for which the EC50 in assay [1] was determined as 0.008 µg/mL (≈ 0.0265 µM); in the assay with HIV-1/II(0.1) 100-Ile, 0.40 µg/mL (≈ 1.32 µM); in the assay on HIV-1/III(0.1) 103-Asn, 0.01 µg/mL (≈ 0.0331 µM); in the assay with HIV-1/I(0.1) 103-Asn, 0.08 µg/mL (≈ 0.265 µM); in the assay on HIV-1/V(0.5) 103-Asn, 0.35 µg/mL (≈ 1.16 µM); in the assay with HIV-1/IV(0.1) 103-Thr, 0.32 µg/mL (≈ 1.06 µM). In the assay on HIV-1(IIIB) (WT), this compound yielded an EC50 of 0.6 ng/mL (≈ 0.00198 µM).

As usually defined, the EC50 is the concentration that produces a half-maximal response.
